Measured values reported in patent publication US20220281846A1, “COMPOUNDS AND COMPOSITIONS FOR THE TREATMENT OF RESPIRATORY DISEASES” (THE UNIVERSITY OF MELBOURNE, priority 2018, published 2022).
Several values for one entry are separate records, joined by “and”; a condition that tells them apart may be missing. Equal entries are not always repeated. Where two headings read alike, the source gives them in different places.

How the values were obtained:
[1] = Mouse pharmacokinetics, IV and oral administration; format: in vivo; details: male C57BL/6 mice; for concentration at 0.017 h / concentration at 0.033 h / concentration at 0.083 h / concentration at 0.25 h / concentration at 0.5 h / concentration at 1 h / concentration at 2 h / concentration at 4 h / concentration at 7.5 h / concentration at 24 h: male, C57BL/6, mouse
Description: PF670462 (2HCl.0.4 mol. eq. isopropanol) and ZH3-138 (unionised) were administered to male C57BL/6 mice by IV (3 mg/kg) or orally (10 mg/kg). IV administration was achieved by bolus injection into the tail vein of mice using 1 mL syringe with 25G×1″ needle at a volume of 3 mL/kg. Oral administration was achieved by gavage needle at a volume of 3 mL/kg.
Intravenous (IV) and oral formulations were prepared using the same method. On the day of dosing, each of the solid compound was dissolved in DMSO to which an aqueous solution containing 10% Captisol was added. Hydrochloric acid (1 M) was used to modify pH for the formulation of ZH3-138 with the purpose of solubilising the compound (see Section B for the final pH of each formulation). The formulations of each compound were thoroughly vortexed, producing colourless solutions for all three compounds.
The systemic exposure of PF670462 and ZH3-138 was studied in non-fasted male C57BL/6 mice weighing 19.8-26.8 g. Mice had access to food and water ad libitum throughout the pre- and post-dose sampling period.
Compounds were dosed to mice by bolus injection into the lateral tail vein (3 mL/kg) for IV administration and by gavage (3 mL/kg) for oral administration. Following IV and oral administration, blood samples were collected up to 24 h (n=3 mice per time point) with a maximum of three samples from each mouse. Samples were collected via submandibular bleed (approximately 120 μL; conscious sampling). No urine samples were collected as mice were housed in bedded cages.
Blood was collected into polypropylene Eppendorf tubes containing heparin as anticoagulant and stabilisation cocktail (containing Complete® (a protease inhibitor cocktail) and potassium fluoride) to minimise the potential for ex vivo compound degradation in blood/plasma samples.
Once collected, blood samples were centrifuged immediately, supernatant plasma was removed, and stored at −80° C. until analysis by LC-MS.
Plasma samples were quantified against calibration standards prepared by spiking blank mouse plasma (50 μL) with solution standards (10 μL) obtained by diluting a stock solution of test compound (1 mg/mL in DMSO) with 50% acetonitrile in water. Diazepam (10 μL of 5 μg/mL in 50% acetonitrile/water) was added to all plasma calibration standards and samples as an internal standard (IS). The extraction of the test compound and IS from plasma was conducted using protein precipitation with acetonitrile. Protein precipitation was carried out by the addition of acetonitrile followed by vortexing and centrifugation (10,000 rpm) for 3 minutes to obtain supernatant for analysis using the LC-MS conditions described in Table 7.

[2] = In vivo determination of whole blood-to-plasma ratio; design: species or system male C57BL/6 mice; details: male, C57BL/6, whole blood and plasma; mouse blood, 15 min and 1 h post-dose; read-out: apparent whole blood-to-plasma ratio (B/P)
Description: Blood was collected from mice at 15 min and 1 h post-dose of each compound for the purposes of determining the whole blood-to-plasma (B/P) ratio. […] No adverse reactions or compound-related side effects observed in any mice during the 24 h sampling period after dosing any of the compounds. Plasma samples were also taken from 2 mice that were not administered test compound for use as analytical tool.
Analysis of B/P partitioning samples was conducted similarly and quantified against calibration standards samples prepared using a 1:1 v/v mixture of blank mouse blood and plasma. The matrix matched B/P partitioning samples and standards were processed using protein precipitation with acetonitrile as described above.
In Vivo Determination of Whole Blood-to-Plasma Ration
Blood was collected via cardiac puncture (whilst under gaseous isoflurane anaesthesia) into tubes containing heparin and stabilisation cocktail. The haematocrit was determined via centrifugation (13000×g for 4 min using a Clemets® Microhematocrit centrifuge and Safecap® Plain Self-sealing Mylar Wrapped capillary tubes), and values ranged from 38% to 40% for PF670462 and 38% to 44% for ZH3-138. […]
The B/P ratio was obtained by dividing the average measured concentration in blood by the average concentration measured in plasma following centrifugation of whole blood.

In the case of `Nc1nccc(-c2c(-c3ccc(F)cc3)ncn2C2CCC(F)(F)CC2)n1` [ZH3-138, 4-(1-(4,4-Difluorocyclohexyl)-4-(4-fluorophenyl)-1H-imidazol-5-yl)pyrimidin-2-amine], the apparent blood clearance [1] is reported as “low”, the “apparent blood volume of distribution” value [1] is reported as “moderate” and the “time post-dose for which plasma concentration was measurable (above LLQ)” value ([1]; 24 h sampling period) is reported as no less than 24 h. For the same compound, the “Plasma Concentration, Individual” value ([1]; IV 2.69 mg/kg, 0.017 h, 2.69 mg/kg) was 11.4 µM and 9.81 µM, the “Plasma Concentration, Individual” value ([1]; IV 2.69 mg/kg, 0.033 h, 2.69 mg/kg) was 6.30 µM and 9.37 µM and the “Plasma Concentration, Individual” value ([1]; IV 2.69 mg/kg, 0.083 h (actual sampling time was 0.10 h), 2.69 mg/kg) was 5.94 µM and 5.95 µM. The “Plasma Concentration, Individual” value ([1]; IV 2.69 mg/kg, 0.25 h, 2.69 mg/kg) was 4.68 µM and 4.21 µM, the “Plasma Concentration, Individual” value ([1]; IV 2.69 mg/kg, 0.5 h, 2.69 mg/kg) was 4.12 µM and 4.28 µM and the “Plasma Concentration, Individual” value ([1]; IV 2.69 mg/kg, 1.0 h, 2.69 mg/kg) was 2.73 µM and 3.70 µM. The “Plasma Concentration, Individual” value ([1]; IV 2.69 mg/kg, 2.0 h, 2.69 mg/kg) was 5.24 µM and 4.00 µM, the “Plasma Concentration, Individual” value ([1]; IV 2.69 mg/kg, 4.0 h, 2.69 mg/kg) was 3.53 µM and 3.63 µM and the “Plasma Concentration, Individual” value ([1]; IV 2.69 mg/kg, 7.5 h, 2.69 mg/kg) was 1.77 µM and 1.54 µM. The “Plasma Concentration, Individual” value ([1]; IV 2.69 mg/kg, 24 h, 2.69 mg/kg) was 0.0287 µM and 0.0211 µM, the “Plasma Concentration, Individual” value ([1]; oral 8.96 mg/kg, 0.25 h, 8.96 mg/kg) was 14.7 µM and 8.96 µM and the “Plasma Concentration, Individual” value ([1]; oral 8.96 mg/kg, 0.50 h, 8.96 mg/kg) was 11.3 µM and 22.5 µM. For the same compound, the “Plasma Concentration, Individual” value ([1]; oral 8.96 mg/kg, 1.0 h, 8.96 mg/kg) was 16.2 µM and 14.4 µM, the “Plasma Concentration, Individual” value ([1]; oral 8.96 mg/kg, 2.0 h, 8.96 mg/kg) was 17.4 µM and 17.7 µM and the “Plasma Concentration, Individual” value ([1]; oral 8.96 mg/kg, 4.0 h, 8.96 mg/kg) was 10.2 µM and 15.1 µM. The “Plasma Concentration, Individual” value ([1]; oral 8.96 mg/kg, 7.5 h, 8.96 mg/kg) was 5.97 µM and 8.71 µM, the “Plasma Concentration, Individual” value ([1]; oral 8.96 mg/kg, 24 h, 8.96 mg/kg) was 0.0400 µM and 0.0758 µM and the “time of apparent secondary peak in concentration-time profile” value ([1]; post-dose) was 2 h. It also gave a concentration at 0.017 h ([1]; plasma, iv, 2.69 mg/kg, IV 2.69 mg/kg, 0.017 h, read-out: Plasma Concentration, Individual) of 11.1 µM, a concentration at 0.017 h ([1]; plasma, iv, 2.69 mg/kg, IV 2.69 mg/kg, 0.017 h, read-out: Plasma Concentration, Mean) of 10.8 µM and a concentration at 0.033 h ([1]; plasma, iv, 2.69 mg/kg, IV 2.69 mg/kg, 0.033 h, read-out: Plasma Concentration, Individual) of 7.86 µM. It also gave a concentration at 0.033 h ([1]; plasma, iv, 2.69 mg/kg, IV 2.69 mg/kg, 0.033 h, read-out: Plasma Concentration, Mean) of 7.84 µM, a concentration at 0.083 h ([1]; plasma, iv, 2.69 mg/kg, IV 2.69 mg/kg, 0.083 h (actual sampling time was 0.10 h), read-out: Plasma Concentration, Individual) of 5.29 µM and a concentration at 0.083 h ([1]; plasma, iv, 2.69 mg/kg, IV 2.69 mg/kg, 0.083 h (actual sampling time was 0.10 h), read-out: Plasma Concentration, Mean) of 5.73 µM. It also gave a concentration at 0.25 h ([1]; plasma, iv, 2.69 mg/kg, IV 2.69 mg/kg, 0.25 h, read-out: Plasma Concentration, Individual) of 5.04 µM, a concentration at 0.25 h ([1]; plasma, iv, 2.69 mg/kg, IV 2.69 mg/kg, 0.25 h, read-out: Plasma Concentration, Mean) of 4.65 µM and a concentration at 0.5 h ([1]; plasma, iv, 2.69 mg/kg, IV 2.69 mg/kg, 0.5 h, read-out: Plasma Concentration, Individual) of 4.01 µM. For the same compound, the concentration at 0.5 h ([1]; plasma, iv, 2.69 mg/kg, IV 2.69 mg/kg, 0.5 h, read-out: Plasma Concentration, Mean) was 4.14 µM, the concentration at 1 h ([1]; plasma, iv, 2.69 mg/kg, IV 2.69 mg/kg, 1.0 h, read-out: Plasma Concentration, Individual) was 2.93 µM and the concentration at 1 h ([1]; plasma, iv, 2.69 mg/kg, IV 2.69 mg/kg, 1.0 h, read-out: Plasma Concentration, Mean) was 3.12 µM. For the same compound, the concentration at 2 h ([1]; plasma, iv, 2.69 mg/kg, IV 2.69 mg/kg, 2.0 h, read-out: Plasma Concentration, Individual) was 4.42 µM, the concentration at 2 h ([1]; plasma, iv, 2.69 mg/kg, IV 2.69 mg/kg, 2.0 h, read-out: Plasma Concentration, Mean) was 4.55 µM and the concentration at 4 h ([1]; plasma, iv, 2.69 mg/kg, IV 2.69 mg/kg, 4.0 h, read-out: Plasma Concentration, Individual) was 3.74 µM. The concentration at 4 h ([1]; plasma, iv, 2.69 mg/kg, IV 2.69 mg/kg, 4.0 h, read-out: Plasma Concentration, Mean) was 3.63 µM, the concentration at 7.5 h ([1]; plasma, iv, 2.69 mg/kg, IV 2.69 mg/kg, 7.5 h, read-out: Plasma Concentration, Individual) was 1.84 µM and the concentration at 7.5 h ([1]; plasma, iv, 2.69 mg/kg, IV 2.69 mg/kg, 7.5 h, read-out: Plasma Concentration, Mean) was 1.72 µM. It also gave a concentration at 24 h ([1]; plasma, iv, 2.69 mg/kg, IV 2.69 mg/kg, 24 h, read-out: Plasma Concentration, Individual) of 0.0237 µM, a concentration at 24 h ([1]; plasma, iv, 2.69 mg/kg, IV 2.69 mg/kg, 24 h, read-out: Plasma Concentration, Mean) of 0.0245 µM and a concentration at 0.25 h ([1]; plasma, po, 8.96 mg/kg, oral 8.96 mg/kg, 0.25 h, read-out: Plasma Concentration, Individual) of 12.1 µM. The concentration at 0.25 h ([1]; plasma, po, 8.96 mg/kg, oral 8.96 mg/kg, 0.25 h, read-out: Plasma Concentration, Mean) was 11.9 µM, the concentration at 0.5 h ([1]; plasma, po, 8.96 mg/kg, oral 8.96 mg/kg, 0.50 h, read-out: Plasma Concentration, Individual) was 13.7 µM and the concentration at 0.5 h ([1]; plasma, po, 8.96 mg/kg, oral 8.96 mg/kg, 0.50 h, read-out: Plasma Concentration, Mean) was 15.8 µM. The concentration at 1 h ([1]; plasma, po, 8.96 mg/kg, oral 8.96 mg/kg, 1.0 h, read-out: Plasma Concentration, Individual) was 13.9 µM, the concentration at 1 h ([1]; plasma, po, 8.96 mg/kg, oral 8.96 mg/kg, 1.0 h, read-out: Plasma Concentration, Mean) was 14.8 µM and the concentration at 2 h ([1]; plasma, po, 8.96 mg/kg, oral 8.96 mg/kg, 2.0 h, read-out: Plasma Concentration, Individual) was 13.8 µM. It also gave a concentration at 2 h ([1]; plasma, po, 8.96 mg/kg, oral 8.96 mg/kg, 2.0 h, read-out: Plasma Concentration, Mean) of 16.3 µM, a concentration at 4 h ([1]; plasma, po, 8.96 mg/kg, oral 8.96 mg/kg, 4.0 h, read-out: Plasma Concentration, Individual) of 11 µM and a concentration at 4 h ([1]; plasma, po, 8.96 mg/kg, oral 8.96 mg/kg, 4.0 h, read-out: Plasma Concentration, Mean) of 12.1 µM. It also gave a concentration at 7.5 h ([1]; plasma, po, 8.96 mg/kg, oral 8.96 mg/kg, 7.5 h, read-out: Plasma Concentration, Individual) of 6.59 µM, a concentration at 7.5 h ([1]; plasma, po, 8.96 mg/kg, oral 8.96 mg/kg, 7.5 h, read-out: Plasma Concentration, Mean) of 7.09 µM and a concentration at 24 h ([1]; plasma, po, 8.96 mg/kg, oral 8.96 mg/kg, 24 h, read-out: Plasma Concentration, Individual) of 0.0513 µM. For the same compound, the concentration at 24 h ([1]; plasma, po, 8.96 mg/kg, oral 8.96 mg/kg, 24 h, read-out: Plasma Concentration, Mean) was 0.0557 µM, the half-life ([1]; mouse, plasma, read-out: apparent half-life (converted)) was roughly 3 h and the blood plasma ratio [2] was 0.91.
